In patent US12428430B2 (BRISTOL-MYERS SQUIBB COMPANY, priority 2018, dated 2025):
pIC50: −log10 of the molar value.

Target: hLPA1 (Homo sapiens, UniProt Q92633)
Assay: LPA1 functional antagonist assay (LPA-induced calcium flux in CHO cells overexpressing human LPA1)
Type: cell-based
Design: expressed in transfected cells; host or cells: Chinese hamster ovary (CHO) cells
Settings: antagonist mode, inhibition of calcium flux induced by 10 nM LPA, read-out: hLPA1 IC50
Protocol: The effectiveness of compounds of the present invention as LPA1 inhibitors can be determined in an LPA1 functional antagonist assay as follows:
Chinese hamster ovary cells overexpressing human LPA1 were plated overnight (15,000 cells/well) in poly-D-lysine coated 384-well microplates (Greiner bio-one, Cat #781946) in DMEM/F12 medium (Gibco, Cat #11039). Following overnight culture, cells were loaded with calcium indicator dye (AAT Bioquest Inc, Cat #34601) for 30 minutes at 37° C. The cells were then equilibrated to room temperature for 30 minutes before the assay. Test compounds solubilized in DMSO were transferred to 384 well non-binding surface plates (Corning, Cat #3575) using the Labcyte Echo acoustic dispense and diluted with assay buffer [1×HBSS with calcium/magnesium (Gibco Cat #14025-092), 20 mM HEPES (Gibco Cat #15630-080) and 0.1% fatty acid free BSA (Sigma Cat #A9205)] to a final concentration of 0.5% DMSO. Diluted compounds were added to the cells by FDSS6000 (Hamamatsu) at final concentrations ranging from 0.08 nM to 5 μM. and were then incubated for 20 min at room temperature at which time LPA (Avanti Polar Lipids Cat #857130C) was added at final concentrations of 10 nM to stimulate the cells. The compound IC50 value was defined as the concentration of test compound which inhibited 50% of the calcium flux induced by LPA alone. IC50 values were determined by fitting data to a 4-parameter logistic equation (GraphPad Prism, San Diego Calif.).

hLPA1, sequence (Q92633 whole entry): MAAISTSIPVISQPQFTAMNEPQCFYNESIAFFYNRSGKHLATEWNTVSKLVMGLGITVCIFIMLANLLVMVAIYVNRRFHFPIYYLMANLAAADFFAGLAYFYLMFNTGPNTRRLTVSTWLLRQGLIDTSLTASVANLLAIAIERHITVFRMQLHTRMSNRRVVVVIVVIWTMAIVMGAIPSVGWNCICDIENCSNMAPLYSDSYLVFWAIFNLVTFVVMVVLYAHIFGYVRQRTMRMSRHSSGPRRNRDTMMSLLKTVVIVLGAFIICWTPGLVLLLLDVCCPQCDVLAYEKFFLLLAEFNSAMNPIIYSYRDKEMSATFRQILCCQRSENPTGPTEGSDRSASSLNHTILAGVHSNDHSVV

Going from “2-(4-(4-(4 2-(4-(4-(4-((((cyclobutyl-methyl)carbamoyl)oxy)methyl)-3-methylisoxazol-5-yl)phenyl)-2-oxabicyclo[2.2.2]octan-1-yl)acetic acid [Example 35]” to “2-(4-(4-(4-((((cyclobutylmethyl)(methyl)carbamoyl)oxy)methyl)-3-methylisoxazol-5-yl)phenyl)-2-oxabicyclo[2.2.2]octan-1-yl)acetic acid [Example 34]”, the pIC50 rises from 6.18 to 6.80 (0.62 log units). The second is the more potent here.

First: CC(C1CCC1)N(C)C(=O)OCc1c(-c2ccc(C34CCC(CCC(=O)O)(CC3)OC4)cc2)nnn1C (racemic) [Example 5, (±)-3-(4-(4-(5-((((1-Cyclobutylethyl)(methyl)carbamoyl)oxy)methyl)-1-methyl-1H-1,2,3-triazol-4-yl)phenyl)-2-oxabicyclo[2.2.2]octan-1-yl)propanoic acid]
Second: Cc1noc(-c2ccc(C34CCC(CC(=O)O)(CC3)OC4)cc2)c1NC(=O)OC(C)c1ccc(Cl)cc1 (racemic) [Example 14]
The pIC50 of the first is 0.57 log units lower: 6.36 for the first, 6.93 for the second. The second is the more potent here.

Compared with Cc1noc(-c2ccc(C34CCC(CC(=O)O)(CC3)OC4)cc2)c1NC(=O)OC(C)c1cccc(Cl)c1 (racemic) [Example 15, (±)-2-(4-(4-(4-(((1-(3-chlorophenyl)ethoxy)carbonyl)amino)-3-methyl-isoxazol-5-yl)phenyl)-2-oxabicyclo[2.2.2]octan-1-yl)acetic acid], Cc1noc(-c2ccc(C34CCC(CC(=O)O)(CC3)OC4)c(F)c2)c1NC(=O)OC(C)c1cccc(Cl)c1 (racemic) [Example 19, (±)-2-(4-(4-(4-(((1-(3-chlorophenyl)ethoxy)carbonyl)amino)-3-methyl-isoxazol-5-yl)-2-fluorophenyl)-2-oxabicyclo[2.2.2]octan-1-yl)acetic acid] is 0.26 log units lower in pIC50: 6.42 for the first, 6.16 for the second.

Cc1noc(-c2ccc(C34CCC(CC(=O)O)(CC3)OC4)cc2F)c1NC(=O)OC(C)c1ccc(Cl)cc1 (racemic) [Example 24, (±)-2-(4-(4-(4-(((1-(4-chlorophenyl)ethoxy)carbonyl)amino)-3-methyl-isoxazol-5-yl)-3-fluorophenyl)-2-oxabicyclo[2.2.2]octan-1-yl)acetic acid] and Cc1noc(-c2ccc(C34CCC(CC(=O)O)(CC3)OC4)cc2F)c1NC(=O)OC(C)c1cccc(Cl)c1 (racemic) [Example 25, (±)-2-(4-(4-(4-(((1-(3-chlorophenyl)ethoxy)carbonyl)amino)-3-methyl-isoxazol-5-yl)-3-fluorophenyl)-2-oxabicyclo[2.2.2]octan-1-yl)acetic acid] are within 0.2 log units of each other in pIC50: 6.39 for the first, 6.46 for the second.

Going from Cc1cc(C23CCC(CC(=O)O)(CC2)OC3)ccc1-c1onc(C)c1NC(=O)O[C@H](C)c1ccccc1C (racemic) [Example 26, (±)-2-(4-(3-methyl-4-(3-methyl-4-((((R)-1-(o-tolyl)ethoxy)carbonyl)amino)isoxazol-5-yl)phenyl)-2-oxabicyclo[2.2.2]octan-1-yl)acetic acid] to CC(OC(=O)Nc1c(-c2ccc(C34CCC(CC(=O)O)(CC3)OC4)c(F)c2)cnn1C)c1ccc(Cl)cc1 (racemic) [Example 29, (±)-2-(4-(4-(5-(((1-(4-chlorophenyl)ethoxy)carbonyl)amino)-1-methyl-1H-pyrazol-4-yl)-2-fluorophenyl)-2-oxabicyclo[2.2.2]octan-1-yl)acetic acid], the pIC50 falls from 7.04 to 5.94 (1.10 log units).

First: CC(C1CC1)N(C)C(=O)OCc1c(-c2ccc(C34CCC(CC(=O)O)(CC3)OC4)cc2)cnn1C (racemic) [Example 36, (rac)-2-(4-(4-(5-((((1-cyclopropyl-ethyl)(methyl)carbamoyl)oxy)methyl)-1-methyl-1-pyrazol-4-yl)phenyl)-2-oxabicyclo[2.2.2]octan-1-yl)acetic acid]
Second: CC(C1CCC1)N(C)C(=O)OCc1c(-c2ccc(C34CCC(CC(=O)O)(CC3)OC4)cc2)cnn1C (racemic) [Example 37, (rac)-2-(4-(4-(5-((((1-cyclobutyl-ethyl)(methyl)carbamoyl)oxy)methyl)-1-methyl-1H-pyrazol-4-yl)phenyl)-2-oxabicyclo[2.2.2]octan-1-yl)acetic acid]
The pIC50 of the first is 1.06 log units lower: 5.72 for the first, 6.78 for the second. The second is the more potent here.

Cc1noc(-c2ccc(C34CCC(CC(=O)O)(CC3)OC4)cc2)c1NC(=O)O[C@H](C)c1ccccc1 [Example 1, 2-(4-(4-(3-methyl-4-((((R)-1-phenylethoxy)carbonyl)amino)isoxazol-5-yl)phenyl)-2-oxabicyclo [2.2.2]octan-1-yl)acetic acid] and C[C@@H](OC(=O)Nc1c(-c2ccc(C34CCC(CC(=O)O)(CC3)OC4)cc2)cnn1C)c1ccccc1 [Example 2, 2-(4-(4-(1-methyl-5-((((R)-1-phenylethoxy)carbonyl)amino)-1H-pyrazol-4-yl)phenyl)-2-oxabicyclo[2.2.2]octan-1-yl)acetic acid] are within 0.2 log units of each other in pIC50: 6.94 for the first, 7.06 for the second.

Compared with Cc1noc(-c2ccc(C34CCC(CC(=O)O)(CC3)OC4)cc2)c1COC(=O)N(C)C1CCCC1 [Example 3, 2-(4-(4-(4-(((cyclopentyl(methyl)carbamoyl)oxy)methyl)-3-methylisoxazol-5-yl)phenyl)-2-oxabicyclo[2.2.2]octan-1-yl)acetic acid], CN(C(=O)OCc1c(-c2ccc(C34CCC(CC(=O)O)(CC3)OC4)cc2)cnn1C)C1CCCC1 [Example 4, 2-(4-(4-(5-(((cyclopentyl(methyl)carbamoyl)oxy)methyl)-1-methyl-1H-pyrazol-4-yl)phenyl)-2-oxabicyclo[2.2.2]octan-1-yl)acetic acid] is 0.71 log units lower in pIC50: 6.50 for the first, 5.79 for the second.

CN(C(=O)OCc1c(-c2ccc(C34CCC(CC(=O)O)(CC3)OC4)c(F)c2)nnn1C)C1CCCC1 [Example 6, 2-(4-(4-(5-(((Cyclopentyl(methyl)carbamoyl)oxy)methyl)-1-methyl-1H-1,2,3-triazol-4-yl)-2-fluorophenyl)-2-oxabicyclo[2.2.2]octan-1-yl)acetic acid] and C[C@@H](OC(=O)Nc1c(-c2ccc(C34CCC(CCC(=O)O)(CC3)OC4)cc2)nnn1C)c1ccccc1 [Example 7, 3-(4-(4-(1-methyl-5-((((R)-1-phenylethoxy)carbonyl)amino)-1H-1,2,3-triazol-4-yl)phenyl)-2-oxabicyclo[2.2.2]octan-1-yl)propanoic acid] are within 0.2 log units of each other in pIC50: 6.44 for the first, 6.58 for the second.

C[C@@H](OC(=O)Nc1c(-c2ccc(C34CCC(CCC(=O)O)(CC3)OC4)cc2)nnn1C)c1ccccc1Cl [Example 8, 3-(4-(4-(5-((((R)-1-(2-chlorophenyl)ethoxy)carbonyl)amino)-1-methyl-1H-1,2,3-triazol-4-yl)phenyl)-2-oxabicyclo[2.2.2]octan-1-yl)propanoic acid] and C[C@@H](OC(=O)Nc1c(-c2ccc(C34CCC(C(=O)O)(CC3)OC4)cc2)cnn1C)c1ccccc1 [Example 9, (R)-4-(4-(1-methyl-5-(((1-phenylethoxy)carbonyl)amino)-1H-pyrazol-4-yl)phenyl)-2-oxabicyclo[2.2.2]octane-1-carboxylic acid] are within 0.2 log units of each other in pIC50: 6.38 for the first, 6.56 for the second.

Compared with C[C@@H](OC(=O)Nc1c(-c2ccc(C34CCC(CC(=O)O)(CC3)OC4)cc2)cnn1CC1CC1)c1ccccc1 [Example 10, (R)-2-(4-(4-(1-(cyclopropylmethyl)-5-(((1-phenylethoxy)carbonyl)amino)-1H-pyrazol-4-yl)phenyl)-2-oxabicyclo[2.2.2]octan-1-yl)acetic acid], Cc1noc(-c2ccc(C34CCC(CC(=O)O)(CC3)OC4)cc2)c1NC(=O)O[C@H](C)C1CC1 [Example 11, 2-(4-(4-(4-((((R)-1-cyclopropyl-ethoxy)carbonyl)amino)-3-methylisoxazol-5-yl)phenyl)-2-oxabicyclo[2.2.2]octan-1-yl)acetic acid] is 0.34 log units higher in pIC50: 6.37 for the first, 6.71 for the second. The second is the more potent here.

First: Cc1noc(-c2ccc(C34CCC(CC(=O)O)(CC3)OC4)cc2)c1NC(=O)O[C@H](C)c1ccccc1Cl [Example 12, 2-(4-(4-(4-((((R)-1-(2-chlorophenyl)ethoxy)carbonyl)amino)-3-methylisoxazol-5-yl)phenyl)-2-oxabicyclo[2.2.2]octan-1-yl)acetic acid]
Second: Cc1ccccc1[C@@H](C)OC(=O)Nc1c(C)noc1-c1ccc(C23CCC(CC(=O)O)(CC2)OC3)cc1 [Example 13, 2-(4-(4-(3-methyl-4-((((R)-1-(o-tolyl)ethoxy)carbonyl)amino)isoxazol-5-yl)phenyl)-2-oxabicyclo[2.2.2]octan-1-yl)acetic acid]
The pIC50 of the first is 0.40 log units higher: 7.14 for the first, 6.74 for the second.

Compared with Cc1noc(-c2ccc(C34CCC(CC(=O)O)(CC3)OC4)c(F)c2)c1NC(=O)O[C@H](C)C1CC1 [Example 16, 2-(4-(4-(4-((((R)-1-cyclopropylethoxy)carbonyl)amino)-3-methylisoxazol-5-yl)-2-fluorophenyl)-2-oxabicyclo[2.2.2]octan-1-yl)acetic acid], Cc1ccccc1[C@@H](C)OC(=O)Nc1c(C)noc1-c1ccc(C23CCC(CC(=O)O)(CC2)OC3)c(F)c1 [Example 17, 2-(4-(2-fluoro-4-(3-methyl-4-((((R)-1-(o-tolyl)ethoxy)carbonyl)amino)isoxazol-5-yl)phenyl)-2-oxabicyclo[2.2.2]octan-1-yl)acetic acid] is 0.53 log units higher in pIC50: 6.39 for the first, 6.92 for the second. The second is the more potent here.
